The source made the active and inactive calls.
Columns and labels:
[1] = blockers of HIV-1 ZM109 envelope-driven cell-cell fusion – HeLa effector, CEM target cells, luciferase, cherry-pick, dose response (AID 652058); format: functional, cell-based;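 further: luciferase signal from HIV-1 Env mediated cell-cell fusion of effector and target cells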
[2] = off-target signal loss in HeLa-CEM21 co-culture – HeLa F-luc CTL cells, cherry-picked, counter-screen for HIV-1 Env fusion inhibitor project, dose response (AID 652040); format: functional, cell-based;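 further: potency for signal decrease marking cytotoxic or nonspecific inhibition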
[3] = HIV-1 AD8 envelope cell-cell fusion blockers – cherry-pick, dose response (AID 652062); format: functional, cell-based;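 further: luciferase signal from cell-cell fusion driven by HIV-1 clade B AD8 Env; potency is for inhibitors of fusion seen as a drop in luminescence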
[4] = biological target: T1, Long-chain-fatty-acid--AMP ligase FadD28 (Mycobacterium tuberculosis, UniProt P9WQ59); experiment: Fluorescence polarization aasay to screen for inhibitors that compete for the binding of FadD28 to a bisubstrate Measured in Biochemical System Using Plate Reader - 2147-01_Inhibitor_Dose_CherryPick_Activity.; format: functional, Mycobacterium tuberculosis H37Rv
T1 sequence (P9WQ59 whole entry): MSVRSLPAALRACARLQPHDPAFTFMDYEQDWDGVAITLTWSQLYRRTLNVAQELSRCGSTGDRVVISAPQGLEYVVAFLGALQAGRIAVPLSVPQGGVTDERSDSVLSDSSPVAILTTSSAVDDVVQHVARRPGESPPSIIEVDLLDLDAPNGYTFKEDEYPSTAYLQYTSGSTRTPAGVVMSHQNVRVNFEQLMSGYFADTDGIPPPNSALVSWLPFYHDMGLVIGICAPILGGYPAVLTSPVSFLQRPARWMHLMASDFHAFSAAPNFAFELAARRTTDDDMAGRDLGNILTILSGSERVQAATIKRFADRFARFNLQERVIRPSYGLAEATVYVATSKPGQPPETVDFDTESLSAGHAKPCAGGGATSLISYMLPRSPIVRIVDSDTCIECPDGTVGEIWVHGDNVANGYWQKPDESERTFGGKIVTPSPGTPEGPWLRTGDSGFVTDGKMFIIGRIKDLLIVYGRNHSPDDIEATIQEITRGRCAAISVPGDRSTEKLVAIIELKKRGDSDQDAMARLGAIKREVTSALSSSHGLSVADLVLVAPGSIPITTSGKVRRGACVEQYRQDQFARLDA

[5] = intracellular Trypanosoma cruzi inhibitors in host cells – cell-based, plate reader, cherry-pick samples, set 3, dose response (AID 651818); format: functional;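 further: compounds incubated with infected cells for about four days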
[6] = blockers of HIV-1 envelope-mediated cell-cell fusion – cherry-pick, dose response (AID 652057); format: functional, cell-based
[7] = Luminescence Cell-Based Dose Retest to Confirm Inhibitors of Cancer Stem Cells. [Related pubchem assays (depositor defined):AID2717, AID2721]; format: functional; settings: Homo sapiens
[8] = biological target: T2, Replicative DNA helicase DnaB (Mycobacterium tuberculosis, UniProt P9WMR3); experiment: DnaB intein splicing inhibitors, dose response, biochemical, cell-free fluorescence (AID 449749); format: functional
T2 sequence (P9WMR3 whole entry): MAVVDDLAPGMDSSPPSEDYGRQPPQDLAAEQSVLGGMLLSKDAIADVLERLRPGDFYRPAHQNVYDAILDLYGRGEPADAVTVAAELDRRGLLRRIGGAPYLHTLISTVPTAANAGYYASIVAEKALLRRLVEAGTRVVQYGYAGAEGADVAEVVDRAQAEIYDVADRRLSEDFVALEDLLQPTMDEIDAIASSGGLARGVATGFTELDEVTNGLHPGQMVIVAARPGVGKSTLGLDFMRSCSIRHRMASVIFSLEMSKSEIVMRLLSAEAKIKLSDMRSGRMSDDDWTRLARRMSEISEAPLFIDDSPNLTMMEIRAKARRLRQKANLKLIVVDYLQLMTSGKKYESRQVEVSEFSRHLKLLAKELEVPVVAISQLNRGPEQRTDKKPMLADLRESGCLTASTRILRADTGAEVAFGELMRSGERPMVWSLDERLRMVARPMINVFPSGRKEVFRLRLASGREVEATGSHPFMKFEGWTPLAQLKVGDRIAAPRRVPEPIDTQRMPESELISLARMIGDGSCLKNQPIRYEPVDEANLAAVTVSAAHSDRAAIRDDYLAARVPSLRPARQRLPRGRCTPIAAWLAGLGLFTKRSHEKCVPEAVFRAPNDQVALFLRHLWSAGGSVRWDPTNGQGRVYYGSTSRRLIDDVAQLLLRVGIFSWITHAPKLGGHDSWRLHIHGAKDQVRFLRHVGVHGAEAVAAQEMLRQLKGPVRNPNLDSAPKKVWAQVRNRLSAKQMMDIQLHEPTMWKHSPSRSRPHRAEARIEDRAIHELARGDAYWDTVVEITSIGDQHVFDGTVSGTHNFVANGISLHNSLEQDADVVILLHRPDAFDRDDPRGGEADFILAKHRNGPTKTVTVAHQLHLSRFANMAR

Protein RecA = biological target: T3, Protein RecA (Mycobacterium tuberculosis, UniProt P9WHJ3); experiment: Fluorescence Cell-Free Homogeneous Dose Retest to Identify Inhibitors of RecA-Intein Splicing Activity. [Related pubchem assays (depositor defined):AID2097, AID2223, AID489010, AID492950]; format: functional
T3 sequence (P9WHJ3 whole entry): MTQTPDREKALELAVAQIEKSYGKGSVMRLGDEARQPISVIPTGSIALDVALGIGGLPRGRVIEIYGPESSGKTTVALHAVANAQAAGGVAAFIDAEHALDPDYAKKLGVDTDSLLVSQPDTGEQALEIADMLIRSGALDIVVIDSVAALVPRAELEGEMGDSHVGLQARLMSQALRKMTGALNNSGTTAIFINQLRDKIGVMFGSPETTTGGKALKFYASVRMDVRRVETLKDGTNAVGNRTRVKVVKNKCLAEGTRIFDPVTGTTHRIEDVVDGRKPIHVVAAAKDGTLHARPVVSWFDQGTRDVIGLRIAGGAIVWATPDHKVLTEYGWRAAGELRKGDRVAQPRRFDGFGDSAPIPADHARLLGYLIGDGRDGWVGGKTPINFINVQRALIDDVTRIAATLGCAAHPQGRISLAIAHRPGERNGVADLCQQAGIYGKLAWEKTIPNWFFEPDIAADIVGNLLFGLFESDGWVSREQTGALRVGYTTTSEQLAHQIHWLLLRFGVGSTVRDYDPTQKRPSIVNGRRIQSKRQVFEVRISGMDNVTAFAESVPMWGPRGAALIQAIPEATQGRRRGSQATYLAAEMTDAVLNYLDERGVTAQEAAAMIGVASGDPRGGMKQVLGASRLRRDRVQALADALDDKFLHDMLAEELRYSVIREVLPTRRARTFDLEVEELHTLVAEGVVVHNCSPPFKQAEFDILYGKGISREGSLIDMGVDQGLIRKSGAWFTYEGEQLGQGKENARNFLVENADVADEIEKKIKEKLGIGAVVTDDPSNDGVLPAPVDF

[9] = biological target: T4, Sentrin-specific protease 8 (Homo sapiens, UniProt Q96LD8); format: functional
T4 sequence (Q96LD8 whole entry): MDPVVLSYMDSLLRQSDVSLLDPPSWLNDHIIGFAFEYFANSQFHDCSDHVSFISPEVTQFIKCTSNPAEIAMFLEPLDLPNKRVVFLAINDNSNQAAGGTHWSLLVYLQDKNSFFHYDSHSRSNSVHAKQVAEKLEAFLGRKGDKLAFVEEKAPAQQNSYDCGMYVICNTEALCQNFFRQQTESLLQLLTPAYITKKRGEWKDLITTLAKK

[10] = biological target: T4, Sentrin-specific protease 8; format: functional; remark: listed apart in the source
[11] = activation of miR-122 Renilla sensor silencing – cell-based, Huh7 psiCHECK-miR122, Renilla luciferase, cherry-picked, dose response (AID 651956); format: functional;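 further: huh7 hepatoma cells stably carrying a psiCHECK-2 miR-122 sensor plasmid; renilla luciferase signal reporting endogenous miR-122 activity after 48 h compound exposure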
[12] = biological target: T5, Apoptotic protease-activating factor 1 (Homo sapiens, UniProt O14727); format: functional
T5 sequence (O14727 whole entry): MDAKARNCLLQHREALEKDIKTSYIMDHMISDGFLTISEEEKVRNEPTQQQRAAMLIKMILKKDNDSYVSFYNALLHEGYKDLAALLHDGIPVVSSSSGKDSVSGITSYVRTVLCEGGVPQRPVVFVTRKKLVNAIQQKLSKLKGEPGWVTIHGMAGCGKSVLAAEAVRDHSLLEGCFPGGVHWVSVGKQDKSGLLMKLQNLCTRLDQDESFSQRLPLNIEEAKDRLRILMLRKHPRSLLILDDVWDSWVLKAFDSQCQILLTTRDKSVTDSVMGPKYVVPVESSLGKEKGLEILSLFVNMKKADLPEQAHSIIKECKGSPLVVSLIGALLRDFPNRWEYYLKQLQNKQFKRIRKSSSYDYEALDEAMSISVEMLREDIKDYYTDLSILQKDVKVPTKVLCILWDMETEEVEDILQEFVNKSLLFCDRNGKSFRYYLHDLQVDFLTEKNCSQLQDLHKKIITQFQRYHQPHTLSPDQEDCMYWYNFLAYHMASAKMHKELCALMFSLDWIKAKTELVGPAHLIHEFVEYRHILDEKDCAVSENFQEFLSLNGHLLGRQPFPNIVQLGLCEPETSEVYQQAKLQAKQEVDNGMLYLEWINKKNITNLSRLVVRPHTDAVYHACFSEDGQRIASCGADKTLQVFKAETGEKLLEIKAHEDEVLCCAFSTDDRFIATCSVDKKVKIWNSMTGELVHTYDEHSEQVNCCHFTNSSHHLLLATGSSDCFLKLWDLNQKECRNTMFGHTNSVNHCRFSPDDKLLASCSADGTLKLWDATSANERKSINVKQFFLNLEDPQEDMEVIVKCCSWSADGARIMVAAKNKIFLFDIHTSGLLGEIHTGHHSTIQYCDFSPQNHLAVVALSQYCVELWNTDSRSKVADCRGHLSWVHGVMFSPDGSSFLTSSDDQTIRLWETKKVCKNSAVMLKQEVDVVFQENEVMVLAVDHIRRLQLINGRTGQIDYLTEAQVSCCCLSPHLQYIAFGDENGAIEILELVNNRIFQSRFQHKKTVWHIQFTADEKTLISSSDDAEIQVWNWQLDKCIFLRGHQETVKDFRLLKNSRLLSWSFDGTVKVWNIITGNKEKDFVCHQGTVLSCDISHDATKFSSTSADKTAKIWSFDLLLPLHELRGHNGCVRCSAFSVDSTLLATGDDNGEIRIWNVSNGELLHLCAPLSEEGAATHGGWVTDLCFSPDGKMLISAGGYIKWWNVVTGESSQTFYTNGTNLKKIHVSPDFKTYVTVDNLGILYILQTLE

P388/ADR = experiment: cells; format: functional; settings: Mus musculus
SN12K1 = experiment: cells; format: functional; settings: Homo sapiens

For `CC(C)NS(=O)(=O)c1ccc(OCC(=O)N2CCN(Cc3ccc4c(c3)OCO4)CC2)c(Cl)c1`, the AC50 [1] was 1.86 µM (active), the AC50 [2] was 29.7 µM (active) and the AC50 [3] was 13.4 µM (active).

With `CCOc1cc(/C=C2/NC(=O)N(CC(=O)Nc3cccc(C)c3)C2=O)ccc1O` the AC50 [4] was 51.7 µM (active).

In the case of `COc1ccc(NC(=O)Nc2ccc3c(c2)C(=O)N([C@H](C)CO)C[C@H](C)[C@@H](CN(C)Cc2ccc(Cl)c(Cl)c2)OCCCC[C@@H](C)O3)cc1`, the AC50 [5] was 4.1 µM (active).

With `C/C(NNC(=O)c1ccccc1O)=C1/C(=O)NC(=O)N(C2CCCCC2)C1=O` the AC50 [4] was 24.7 µM (active).

For `Cc1ccc(NC(=O)CN2C(=O)S/C(=C\c3cc(C)n(-c4ccc(C(=O)O)cc4)c3C)C2=O)cc1`, the AC50 [4] was 2.97 µM (active).

In the case of `O=C(C[C@@H]1C/C=C/CC[C@@H](Cc2ccc(F)cc2)C(=O)O[C@H](c2ccccc2)CNC1=O)NCCO`, the AC50 [6] was 5.18 µM (active), the AC50 [1] was 5.4 µM (active) and the AC50 [2] was 6.16 µM (active). For the same compound, the AC50 [3] was 6.44 µM (active).

With `COc1ccc(-c2cc(=O)n(-c3ccc([N+](=O)[O-])cc3)[nH]2)cc1` the AC50 [7] was 10 µM (active), the AC50 [8] was 2.75 µM (active) and the EC50 (Protein RecA) was 2.42 µM (active). For the same compound, the IC50 [9] was 17.6 µM (active) and the IC50 [10] was 25.2 µM (active).

For `C[C@@H]1CN([C@H](C)CO)C(=O)Cc2cc(NC(=O)Nc3cccc4ccccc34)ccc2O[C@@H]1CN(C)Cc1ccc2c(c1)OCO2`, the AC50 [5] was 2.61 µM (active).

In the case of `COCC(=O)N(C)C[C@H]1Oc2cc(C#Cc3cccnc3)ccc2S(=O)(=O)N([C@@H](C)CO)C[C@@H]1C`, the AC50 [11] was 32.8 µM (active).

In the case of `Cc1noc(C)c1S(=O)(=O)Nc1ccc2c(c1)CC(=O)N([C@H](C)CO)C[C@H](C)[C@H](CN(C)Cc1ccc(C(=O)Nc3ccccc3N)cc1)O2`, the AC50 [5] was 2.36 µM (active).

For `O=S1(=O)c2c(cccc2N2CCCCC2)O[C@H](COCc2ccccc2)CN1C1CC1`, the AC50 [6] was 6.53 µM (active), the AC50 [1] was 4.61 µM (active) and the AC50 [2] was 16.3 µM (active). For the same compound, the AC50 [3] was 22.4 µM (active).

For `N#CC1(CCCN2CCCCC2)c2ccccc2CCc2ccccc21`, the IC50 [9] was 35.4 µM (active) and the IC50 [10] was 43.4 µM (active).

For `O=C(NCC(c1ccco1)N1CCCC1)c1cccc(S(=O)(=O)Nc2ccc(Br)cc2)c1` (stereo not given), the IC50 [12] was 45.8 µM (active).

In the case of `O=C(CCCN1CCc2[nH]c3ccc(F)cc3c2C1)c1ccc(F)cc1`, the IC50 [12] was 7.9 µM (active).

In the case of `C[C@@H]1CCCCO[C@@H](CN(C)C(=O)Nc2ccc(C(F)(F)F)cc2)[C@@H](C)CN([C@H](C)CO)C(=O)c2cc(NC(=O)Nc3ccccc3)ccc2O1`, the AC50 [5] was 3.75 µM (active).

With `NC(=O)C#CC(N)=O` the GI50 (P388/ADR) was 1.02 µM (active) and the GI50 (SN12K1) was 12.9 µM (inactive).

— ChEMBL document CHEMBL1201862, “PubChem BioAssay data set” (2004)
